These results are taken from ChEMBL document CHEMBL1201862, “PubChem BioAssay data set” (2004).

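The compound was tested at five concentrations on cells cultured in 96-well plates, with a 48-hour exposure period. The concentration for 50% growth inhibition is given as GI50.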 Active and inactive are the calls of the source. Rule as the data show it: active = GI50 up to about 1.1 µM and inactive = higher.

Among the test systems are CAKI-1; CCRF-CEM; HCT-116; HOP-62; HT-29; Hs-578T; K562; LOX IMVI; MCF7; MDA-MB-231; NCI-H226; OVCAR-4; OVCAR-5; RPMI-8226; RXF 393; SK-MEL-5; T47D; TK-10; UACC-257; UO-31.
What all share (experiment): NCI tumour cell line growth inhibition, 48 h

`O=C1NCN(c2ccccc2)C12CCN(CCCN1CCN(CCOC(c3ccccc3)c3ccccc3)CC1)CC2`: the GI50 in the assay with CAKI-1 was 3.78 µM (inactive); in the assay with CCRF-CEM it was 0.859 µM (active); in the assay with HCT-116, 2.33 µM (inactive); with HOP-62, 3.25 µM (inactive); in the assay with HT-29 it was 1.11 µM (active); with Hs-578T, 3.48 µM (inactive). Also, the GI50 in the assay on K562 was 0.447 µM (active); in the assay on LOX IMVI, 3.01 µM (inactive); in the assay on MCF7, 3.11 µM (inactive); in the assay with MDA-MB-231, 3.52 µM (inactive); in the assay on NCI-H226, 2.96 µM (inactive); with OVCAR-4, 3.53 µM (inactive). In addition, the GI50 was 5.08 µM (inactive) in the assay on OVCAR-5; 1.67 µM (inactive) in the assay on RPMI-8226; 1.5 µM (inactive) with RXF 393; 1.28 µM (inactive) in the assay with SK-MEL-5; 3.02 µM (inactive) with T47D; 3.83 µM (inactive) in the assay on TK-10. Besides, the GI50 in the assay on UACC-257 is 1.47 µM (inactive); with UO-31 it was 1.5 µM (inactive).

Consider `CCCCCC(=O)Nc1[nH]cnc1C(N)=O`, for which the GI50 in the assay on CAKI-1, in the assay with CCRF-CEM, in the assay on HCT-116, in the assay with HOP-62, in the assay with HT-29 and in the assay with Hs-578T was > 100 µM (inactive) in each case. The GI50 in the assay on K562, with LOX IMVI, in the assay with MCF7, with MDA-MB-231, in the assay on NCI-H226 and in the assay on OVCAR-4 was > 100 µM (inactive) throughout. Moreover, the GI50 in the assay with OVCAR-5, with RPMI-8226, in the assay on RXF 393, in the assay on SK-MEL-5, with T47D and in the assay with TK-10 was > 100 µM (inactive) throughout. Also, the GI50 in the assay on UACC-257 and in the assay with UO-31 was > 100 µM (inactive) throughout.

Consider `C#CCn1c(=O)c2ccccc2n(CC#C)c1=O`, for which the GI50 in the assay with CAKI-1, with CCRF-CEM, in the assay with HCT-116, in the assay with HOP-62, in the assay with HT-29 and with Hs-578T was > 10 µM (inactive) in each case. Besides, the GI50 in the assay with K562, with LOX IMVI, in the assay with MCF7, with MDA-MB-231, in the assay on NCI-H226 and in the assay with OVCAR-4 was > 10 µM (inactive) in each case. Besides, the GI50 in the assay with OVCAR-5, with RPMI-8226, with RXF 393, in the assay on SK-MEL-5, in the assay with T47D and in the assay on TK-10 was > 10 µM (inactive) each time. The GI50 with UACC-257 and with UO-31 was > 10 µM (inactive) throughout.

Regarding `CN(C)CCCN1C(=S)N(CCCN(C)C)c2c3cc(O)ccc3nc3c([N+](=O)[O-])ccc1c23`, the GI50 in the assay on CAKI-1 is 1.66 µM (inactive); in the assay with CCRF-CEM, 1.18 µM (inactive); in the assay with HCT-116, 1 µM (active); with HOP-62, 2.61 µM (inactive); with HT-29, 0.757 µM (active); in the assay on Hs-578T it was 5.61 µM (inactive). Moreover, the GI50 was 2.14 µM (inactive) in the assay on K562; 1.26 µM (inactive) in the assay with LOX IMVI; 0.902 µM (active) in the assay with MCF7; 3.71 µM (inactive) with MDA-MB-231; 1.94 µM (inactive) with NCI-H226; 2.61 µM (inactive) in the assay on OVCAR-4. Besides, the GI50 in the assay with OVCAR-5 is 11.8 µM (inactive); with RPMI-8226, 4.46 µM (inactive); with RXF 393, 3.03 µM (inactive); with SK-MEL-5 it was 3.18 µM (inactive); in the assay on T47D it was 1.44 µM (inactive); in the assay with TK-10, 11.5 µM (inactive). Moreover, the GI50 in the assay with UACC-257 is 5.45 µM (inactive); in the assay with UO-31, 2.87 µM (inactive).

`O=C(O)C1OC1(c1cccc(Cl)c1)c1ccccc1Cl` (stereo not drawn): the GI50 in the assay on CAKI-1 is 20.5 µM (inactive); with CCRF-CEM, 11.2 µM (inactive); in the assay on HCT-116, 19 µM (inactive); with HOP-62, 23.9 µM (inactive); with HT-29, 25.9 µM (inactive); with Hs-578T it was 25.4 µM (inactive). The GI50 in the assay with K562 is 16.7 µM (inactive); with LOX IMVI, 18 µM (inactive); with MCF7, 29.4 µM (inactive); in the assay with MDA-MB-231, 18.1 µM (inactive); with NCI-H226, 38.2 µM (inactive); with OVCAR-4, 23.5 µM (inactive). The GI50 in the assay with OVCAR-5 is 58.7 µM (inactive); with RPMI-8226, 31.1 µM (inactive); in the assay with RXF 393, 27.4 µM (inactive); with SK-MEL-5, 20 µM (inactive); with T47D, 20.7 µM (inactive); with TK-10 it was 31.5 µM (inactive). For the same compound, the GI50 in the assay with UACC-257 was 26.6 µM (inactive); in the assay on UO-31, 20.8 µM (inactive).

Turning to `COC1C(O)=C2C(=O)OC(C)(O)/C=C/C=C\C=C/C=C/C(c3ccccc3)NC(=O)/C=C/C=C/C=C/C=C/C2(C)C1O` (stereo not drawn), the GI50 in the assay on CAKI-1 is 0.0175 µM (active); in the assay on CCRF-CEM, 0.383 µM (active); in the assay with HCT-116 it was 0.00403 µM (active); in the assay with HOP-62 it was 0.0121 µM (active); with HT-29, < 0.001 µM (active); in the assay on Hs-578T, 0.0419 µM (active). For the same compound, the GI50 was 0.248 µM (active) in the assay on K562; 0.00838 µM (active) in the assay on LOX IMVI; 0.001 µM (active) with MCF7; 0.0101 µM (active) with MDA-MB-231; 0.00646 µM (active) in the assay with NCI-H226; 0.0678 µM (active) with OVCAR-4. Moreover, the GI50 with OVCAR-5 was 0.129 µM (active); in the assay with RPMI-8226, 0.0111 µM (active); with RXF 393, 0.0184 µM (active); with SK-MEL-5, 0.0356 µM (active); in the assay with T47D, 0.0152 µM (active); with TK-10 it was 0.00871 µM (active). The GI50 in the assay on UACC-257 is 0.0363 µM (active); in the assay with UO-31, 0.00984 µM (active).

For the compound `O=C(O)C(Cc1c[nH]c2ccccc12)C(=O)NO` (stereo not drawn), the GI50 in the assay with CAKI-1 was > 100 µM (inactive); in the assay with CCRF-CEM, 39.8 µM (inactive); in the assay on HCT-116, > 100 µM (inactive); in the assay on HOP-62, > 100 µM (inactive); in the assay with HT-29 it was > 100 µM (inactive); in the assay on Hs-578T, > 100 µM (inactive). For the same compound, the GI50 in the assay on K562, in the assay on LOX IMVI, with MCF7, in the assay on MDA-MB-231, with NCI-H226 and with OVCAR-4 was > 100 µM (inactive) each time. In addition, the GI50 with OVCAR-5, in the assay on RPMI-8226, with RXF 393, with SK-MEL-5, in the assay on T47D and in the assay with TK-10 was > 100 µM (inactive) in each case. Besides, the GI50 in the assay with UACC-257 and with UO-31 was > 100 µM (inactive) each time.

Regarding `COCC1OCCN1C` (stereo not drawn), the GI50 in the assay with CAKI-1, with CCRF-CEM, with HCT-116, in the assay with HOP-62, in the assay with HT-29 and with Hs-578T was > 100 µM (inactive) throughout. The GI50 in the assay with K562, with LOX IMVI, in the assay on MCF7, with MDA-MB-231, in the assay on NCI-H226 and with OVCAR-4 was > 100 µM (inactive) each time. For the same compound, the GI50 in the assay on OVCAR-5, in the assay on RPMI-8226, in the assay with RXF 393, in the assay with SK-MEL-5, in the assay on T47D and in the assay with TK-10 was > 100 µM (inactive) in each case. Besides, the GI50 in the assay with UACC-257 and in the assay with UO-31 was > 100 µM (inactive) throughout.

For the compound `CC1(C)C2CCC3=C(CCC4(C)C5C[C@](C)(C(=O)O)CC[C@]5(C)CC[C@]34C)[C@@]2(C)CC[C@@H]1O` (stereo partly drawn), the GI50 with CAKI-1 was 18.9 µM (inactive); in the assay with CCRF-CEM, 14.9 µM (inactive); in the assay with HCT-116 it was 16.6 µM (inactive); in the assay on HOP-62, 17 µM (inactive); in the assay on HT-29, 17.5 µM (inactive); with Hs-578T, 31 µM (inactive). Further, the GI50 in the assay on K562 was 16.6 µM (inactive); in the assay on LOX IMVI it was 14.8 µM (inactive); in the assay on MCF7, 19.9 µM (inactive); in the assay on MDA-MB-231, 17.9 µM (inactive); with NCI-H226 it was 29 µM (inactive); in the assay on OVCAR-4 it was 16.3 µM (inactive). For the same compound, the GI50 was 49.8 µM (inactive) in the assay with OVCAR-5; 20.9 µM (inactive) in the assay with RPMI-8226; 21.6 µM (inactive) in the assay with RXF 393; 34.3 µM (inactive) in the assay on SK-MEL-5; 18 µM (inactive) with T47D; 17.8 µM (inactive) in the assay on TK-10. The GI50 with UO-31 was 29.4 µM (inactive).

In the case of `Cn1c(=O)c2c(nc3n2CC(C(=O)O)N3)n(C)c1=O` (stereo not drawn), the GI50 with CAKI-1 is > 100 µM (inactive); with HCT-116, > 100 µM (inactive); in the assay on HOP-62, > 100 µM (inactive); in the assay on HT-29, > 100 µM (inactive); in the assay on Hs-578T, > 100 µM (inactive); with K562, 9.1 µM (inactive). In addition, the GI50 in the assay with LOX IMVI, with MCF7, in the assay with MDA-MB-231, in the assay with NCI-H226, in the assay on OVCAR-4 and with OVCAR-5 was > 100 µM (inactive) throughout. Also, the GI50 with RPMI-8226, in the assay on RXF 393, in the assay with SK-MEL-5, in the assay with T47D, in the assay with TK-10 and in the assay on UACC-257 was > 100 µM (inactive) throughout. The GI50 with UO-31 is > 100 µM (inactive).
